Assay results as given in US7084158B2, “Substituted propargylamines” (Bayer Cropscience S.A., priority 2001, dated 2006).

What was measured:
Type in all cases: in vivo
Design in all cases: key: compounds were considered to be active when, at a concentration of 500 ppm or less, they had an activity on the harmful organisms of 50% or more
[1] = test system: Diabrotica undecimpunctata; assay: Example C: corn rootworm eggs with maize corn, mortality; settings: 500 ppm or less; 4-5-day-old eggs; after 6 days
Heliothis virescens = assay: Example B: tobacco budworm eggs on filter paper/insect diet, mortality; settings: 500 ppm or less; 24-hour-old eggs dipped, diet treated; after 6 days
Aedes aegypti = assay: Example AG: microtiter plate, yellow fever mosquito larvicidal activity; settings: 500 ppm or less, after 3 days

SMILES | effect on the eggs and hatched larvae (mortality) [1] | effect on the eggs and hatched larvae (mortality) (Heliothis virescens) | larvicidal activity (Aedes aegypti)
Cl.FC(F)(F)c1cc(C#CCN2CCC(C(F)(F)F)CC2)nc(C(F)(F)F)c1 [Example 1050] | active |  | 
CC1CCN(CC#Cc2ccc(Cl)cc2Cl)CC1.Cl [Example 1000] |  | active | 
CC1CCN(CC#Cc2cccc(-c3ccc(Cl)s3)c2)CC1 [Example 225] |  | active | 
CC1CCN(CC#Cc2ccc(-c3cc(C(F)(F)F)cc(C(F)(F)F)c3)s2)CC1 [Example 271] |  | active | 
CCOC(=O)c1cccc(-c2ccc(C#CCN3CCC(C)CC3)cc2)c1 [Example 178] |  | active | 
CC1CCN(CC#Cc2ccc(-c3cc(F)cc([N+](=O)[O-])c3)cc2)CC1 [Example 177] |  | active | 
Cc1cccc(-c2ccc(C#CCN3CCC(C)CC3)s2)c1 [Example 246] |  | active | 
CC1CCN(CC#Cc2cc(Cl)cc(Cl)c2)CC1.Cl [Example 1011] |  | active | 
CC1CCN(CC#Cc2ccc(-c3cc(Cl)cc(Cl)c3)s2)CC1 [Example 273] |  | active | 
CC1CCN(CC#Cc2cccc(-c3cc(C(F)(F)F)cc(C(F)(F)F)c3)c2)CC1 [Example 218] |  |  | active
CC1CCN(CC#Cc2ccc(Br)c(F)c2)CC1 [Example 207] | active | active | 
CC1CCN(CC#Cc2cc(C(F)(F)F)cc(C(F)(F)F)c2)CC1.O=C(O)/C=C\C(=O)O [Example 1056] | active | active | 
CC1CCN(CC#Cc2ccc(-c3cccc(C(F)(F)F)c3)s2)CC1 [Example 229] |  | active | 
CC1CCN(CC#Cc2ccc(-c3ccc(Cl)cc3Cl)cc2)CC1 [Example 176] |  | active | 
CC1CCN(CC#Cc2ccc(-c3ccccc3Cl)cc2)CC1 [Example 174] |  | active | 
CC1CCN(CC#Cc2ccc(-c3ccccc3)s2)CC1 [Example 240] |  | active | 
CC1CCN(CC#Cc2ccc(-c3ccc(C(F)(F)F)cc3)cc2)CC1 [Example 172] |  | active | 
CC1CCN(CC#Cc2cc(Cl)c(OC(F)(F)C(F)Cl)c(Cl)c2)CC1 (stereo not drawn) [Example 283] |  | active | 
Cc1cc(C#CCN2CCC(C)CC2)sc1-c1ccc(F)cc1 [Example 232] |  | active | 

SMILES | effect on the eggs and hatched larvae (mortality) [1] | effect on the eggs and hatched larvae (mortality) (Heliothis virescens) | larvicidal activity (Aedes aegypti)
FC(F)(F)c1cc(C#CCN2CCCC(C(F)(F)F)C2)cc(C(F)(F)F)c1 (stereo not drawn) [Example 281] | active |  | 
Cc1cc(Cl)ccc1C#CCN1CCC(C)CC1 [Example 100] |  | active | 
CC1CCN(CC#Cc2cccc(-c3ccc(Cl)cc3)c2)CC1 [Example 222] |  | active | 
FC(F)(F)c1cccc(C#CCN2CCCC(C(F)(F)F)C2)c1 (stereo not drawn) [Example 297] | active |  | 
Cc1ccc(-c2ccc(C#CCN3CCC(C)CC3)cc2F)cc1 [Example 248] |  |  | active
CC1CCN(CC#Cc2ccc(-c3ccc(C(F)(F)F)cc3)s2)CC1 [Example 242] |  |  | active
CC1CCN(CC#Cc2cccc(-c3cccc(Cl)c3)c2)CC1 [Example 219] |  |  | active
CC1CCN(CC#Cc2ccc(-c3ccc(F)c(Cl)c3)c(F)c2)CC1 [Example 249] |  |  | active
CC1CCN(CC#Cc2cccc(-c3ccc(C#N)cc3)c2)CC1 [Example 226] |  | active | 
CC1CCN(CC#Cc2cccc(C(F)(F)F)c2)CC1 [Example 24] |  | active | 
COc1ccc(-c2ccc(C#CCN3CCC(C)CC3)cc2F)cc1 [Example 231] | active |  | 
CC1CCN(CC#Cc2cccc(-c3cccc4ccccc34)c2)CC1 [Example 221] |  | active | 
Cc1c(Cl)cccc1C#CCN1CCC(C)CC1 [Example 97] |  | active | 
CC1CCN(CC#Cc2ccnc(C(F)(F)F)n2)CC1 [Example 167] |  | active | 
Cc1ccc(-c2ccc(C#CCN3CCC(C)CC3)s2)cc1 [Example 241] |  | active | 
CC1CCN(CC#Cc2ccc(-c3ccccc3)cc2)CC1 [Example 119] |  | active | 
CC1CCN(CC#Cc2ccc(-c3cccc(C(F)(F)F)c3)cc2)CC1 [Example 182] |  | active | 
CC1CCN(CC#Cc2cccc(-c3ccc(C(F)(F)F)cc3)c2)CC1 [Example 217] |  | active | 
CC1CCN(CC#Cc2ccc(-c3cccc(Cl)c3)cc2)CC1 [Example 173] |  | active | 

SMILES | effect on the eggs and hatched larvae (mortality) [1] | effect on the eggs and hatched larvae (mortality) (Heliothis virescens) | larvicidal activity (Aedes aegypti)
CC1(C)CCCN(CC#Cc2cc(C(F)(F)F)cc(C(F)(F)F)c2)C1.Cl [Example 1001] | active |  | 
Cc1ccc(-c2sc(C#CCN3CCC(C)CC3)cc2C)cc1 [Example 236] |  | active | 
Cc1cc(C#CCN2CCC(C)CC2)sc1-c1ccc(Cl)cc1 [Example 239] |  | active | 
CC1CCN(CC#Cc2ccc(C=NOCc3ccc(Cl)cc3Cl)s2)CC1 [Example 296] |  | active | 
FC(F)(F)c1cc(C#CCN2CCCC(C(F)(F)F)C2)nc(C(F)(F)F)c1 (stereo not drawn) [Example 282] | active |  | 
Cc1cc(C)nc(C#CCN2CCC(C)CC2)c1 [Example 201] | active | active | 
CC1CCN(CC#Cc2ccc(-c3cccc(Cl)c3)s2)CC1 [Example 247] |  | active | 
Cc1ccc(C#CCN2CCC(C)CC2)cc1C(F)(F)F [Example 284] |  | active | 
CC(=O)c1ccc(C#CCN2CCC(C)CC2)s1 [Example 214] |  | active | 
CC1CCN(CC#Cc2cccc(-c3cnc(Cl)c(Cl)c3)c2)CC1 [Example 224] |  | active | 
FC(F)(F)c1cc(C#CCN2CCC(C(F)(F)F)CC2)cc(C(F)(F)F)c1 [Example 205] | active |  | 
CC1CCCN(CC#Cc2cc(C(F)(F)F)cc(C(F)(F)F)c2)C1 (stereo not drawn) [Example 31] | active |  | 
CC1CCN(CC#Cc2c(Cl)cc(C(F)(F)F)cc2Cl)CC1 [Example 295] | active | active | 
CC1CCN(CC#Cc2ccc(F)c(Cl)c2)CC1 [Example 124] |  | active | 
COc1ccc(-c2ccc(C#CCN3CCC(C)CC3)cc2)cc1 [Example 181] |  | active | 
CC1CCN(CC#Cc2ccc(F)c(C(F)(F)F)c2)CC1 [Example 285] |  | active | 
CC1CCN(CC#Cc2ccc(C(F)(F)F)cn2)CC1 [Example 58] | active |  | 
CC1CCN(CC#Cc2ccc(-c3cc(C(F)(F)F)ccc3Cl)cc2)CC1 [Example 171] |  | active | 
